Reference: patent US20210330611A1, “THERAPY FOR NEUROLOGICAL DISEASES/DISORDERS” (priority 2020, published 2021)
Structures can show the parent of a compound that is named as a salt. Where two headings read alike, the source gives them in different places.

Assays:
in vitro [1] = conditions: rat, Cell Toxicity IC50 (uM) [cFib assay]
[2] = test system: fibrin- and LPS-induced microglia activation; test: cells; assay type: cell-based, rat; conditions: for inhibition at 10 µM: Rattus norvegicus
in vitro [3] = conditions: rat
[4] = test system: LPS-induced microglia activation; test: Image-based assay of LPS-induced microglia activation (HTS and dose response); assay type: cell-based, rat; conditions: Rattus norvegicus, Microglia; for inhibition at 10 µM: read-out: LPS % inhibition
primary rat microglia [5] = test: Cell toxicity (dead cells, size <150 μm2) in coated fibrin (cFib) assay; conditions: for Fibrin % cell toxicity: primary microglia HTS, fibrin stimulation, decreased size (<150 μm^2) as marker of toxicity;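 as to Fibrin % cell toxicity: share of dead cells sized under 150 µm2 at 10 µM in fibrin-stimulated microglia HTS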
[6] = test system: fibrin-induced microglia activation; test: Image-based assay of fibrin-induced microglia activation (HTS and dose response); assay type: cell-based, rat; conditions: for IC50 / inhibition at 10 µM: Rattus norvegicus, Microglia; for inhibition at 10 µM: read-out: Fibrin % inhibition
primary rat microglia [7] = test: Cell toxicity (dead cells, size <150 μm2) in LPS assay; conditions: for LPS % cell toxicity: primary microglia HTS, LPS stimulation, decreased size (<150 μm^2) as marker of toxicity; for IC50: read-out: Cell Toxicity IC50 (uM) [LPS assay], LPS assay
[8] = HTS of 1907 compounds, quadrant by fibrin and LPS inhibition
[9] = Microglia, Table 3, read-out: Cherry-picked Hit (Suppl. Table 7)
[10] = Microglia, HTS hit classification, read-out: Hit
[11] = quadrant by fibrin and LPS inhibition in HTS of 1907 compounds
[12] = 48 h, primary microglia HTS, LPS stimulation, increased cell size (>800 μm^2) as marker of activation
[13] = 48 h, Table 1, dose response 0.001-20 μM, triplicates, primary rat microglia, 48 h, read-out: Fibrin IC50
[14] = Table 3, read-out: Fibrin IC50 (uM) (Suppl. Table 7)
[15] = dose response, fibrin-induced microglia activation, read-out: Fibrin IC50
[16] = fibrin-induced microglia activation, dose response, read-out: Fibrin IC50 (uM) (Suppl. Table 7)
[17] = primary microglia HTS, fibrin stimulation, increased cell size (>800 μm^2) as marker of activation
[18] = hit classification in microglia HTS, read-out: Cherry-picked Hit (Suppl. Table 7)
[19] = 48 h, Table 1, dose response 0.001-20 μM, triplicates, primary rat microglia, 48 h, read-out: LPS IC50
[20] = LPS-induced microglia activation, dose response, read-out: LPS IC50 (uM) (Suppl. Table 7)
[21] = dose response, LPS-induced microglia activation, read-out: LPS IC50
[22] = Table 3, read-out: LPS IC50 (uM) (Suppl. Table 7)

Compound | IC50 (in vitro [1]; Table 3) | IC50 (in vitro [1]; cFib assay) | Quadrant (FIG. 5b) [2, 8] | inhibition at 10 µM [2, 9] | inhibition at 10 µM [2, 10] | Quadrant (FIG. 5b) ([2]; Table 1, screen at 10 μM) | Quadrant (FIG. 5b) ([2]; Table 3, screen at 10 μM) | Quadrant (FIG. 5b) [2, 11] | IC50 (in vitro [3]) | inhibition at 10 µM [4, 12] | Fibrin % cell toxicity (primary rat microglia [5]) | IC50 [6, 13] | IC50 [6, 14] | IC50 [6, 15] | IC50 [6, 16] | inhibition at 10 µM [6, 17] | LPS % cell toxicity (primary rat microglia [7]) | IC50 [4, 19] | IC50 [4, 20] | IC50 [4, 21] | also measured
Cc1cccc(N(C)C(=S)Oc2ccc3ccccc3c2)c1 [Tolnaftate, reference compound] | > 20 µM | > 20 µM | Q2 | > 50% | > 50% | Q2 | Q2 | Q2 | > 20 µM | 60% | 1% | 2 µM | 2 µM | 2 µM | 2 µM | 76% | 1% | – | – | – | IC50 (primary rat microglia [7]): > 20 µM
c1ccc2[nH]c(-c3cscn3)nc2c1 [Thiabendazole, reference compound] | – | > 20 µM | Q2 | – | > 50% | Q2 | – | Q2 | > 20 µM | 62% | 1% | > 20 µM | – | > 20 µM | > 20 µM | 58% | 1% | > 20 µM | > 20 µM | > 20 µM | inhibition at 10 µM [2, 18]: > 50%
CN(C)CCCOc1nn(Cc2ccccc2)c2ccccc12 [Benzydamine hydrochloride, reference compound] | – | 20 µM | Q2 | – | > 50% | Q2 | – | Q2 | 8 µM | 102% | 1% | 6 µM | – | 6 µM | 6 µM | 75% | 6% | 3 µM | 3 µM | 3 µM | inhibition at 10 µM [2, 18]: > 50%
C[C@H]1C[C@H]2[C@@H]3CCC4=CC(=O)C=C[C@]4(C)[C@@]3(F)[C@@H](O)C[C@]2(C)[C@@]1(O)C(=O)CO [Betamethasone, reference compound] | > 20 µM | > 20 µM | Q2 | > 50% | > 50% | Q2 | Q2 | Q2 | > 20 µM | 94% | – | < 0.001 µM | < 0.001 µM | < 0.001 µM | < 0.001 µM | 103% | – | 0.01 µM | 0.01 µM | 0.01 µM | Quadrant (FIG. 5b) ([2]; Table 2, screen at 10 μM): Q2; Quadrant (FIG. 5b) ([2]; primary HTS, 10 μM): Q4; IC50 [4, 22]: 0.01 µM; IC50 ([4]; Table 7, read-out: LPS_IC50): 0.002 µM; inhibition at 10 µM ([4]; primary HTS, 10 μM, LPS-stimulated primary microglia): -9%; IC50 (primary rat microglia [5]; Rattus norvegicus, Microglia, read-out: dead_IC50 (uM), Table 7, fibrin or LPS assay not specified): 2.08 µM; IC50 ([6]; Table 7, read-out: fib_IC50): 0.002 µM; inhibition at 10 µM ([6]; primary HTS, 10 μM, fibrin-stimulated primary microglia): -4%; IC50 (primary rat microglia [7]): > 20 µM
O=P(O)(O)C(O)(Cc1cccnc1)P(=O)(O)O [Risedronate sodium, reference compound] | – | > 20 µM | Q3 | – | > 50% | Q3 | – | Q3 | > 20 µM | 16% | 2% | 19 µM | – | 19 µM | 19 µM | 81% | 0% | > 20 µM | > 20 µM | > 20 µM | inhibition at 10 µM [2, 18]: > 50%
[H]/N=C(/NCCCCC)N/N=C/c1c[nH]c2ccc(OC)cc12 [Tegaserod maleate, reference compound] | > 20 µM | > 20 µM | Q2 | > 50% | > 50% | Q2 | Q2 | Q2 | > 20 µM | 86% | 2% | 1 µM | 1 µM | 1 µM | 1 µM | 100% | 2% | 19 µM | 19 µM | 19 µM | IC50 [4, 22]: 19 µM; Fibrin Selectivity [6]: 20; Fibrin Selectivity (LOG10) [6]: 1.29; IC50 (primary rat microglia [7]): > 20 µM
CN(C)CCc1c[nH]c2ccc(CS(=O)(=O)N3CCCC3)cc12 [Almotriptan, reference compound] | – | > 20 µM | Q2 | – | > 50% | Q2 | – | Q2 | > 20 µM | 85% | 2% | > 20 µM | – | > 20 µM | > 20 µM | 101% | 1% | > 20 µM | > 20 µM | > 20 µM | inhibition at 10 µM [2, 18]: > 50%
CC(=O)OCC(=O)[C@H]1CC[C@H]2[C@@H]3CCC4=CC(=O)CC[C@]4(C)[C@H]3CC[C@]12C [Desoxycorticosterone acetate, reference compound] | > 20 µM | > 20 µM | Q3 | > 50% | > 50% | Q3 | Q3 | Q3 | > 20 µM | 47% | 1% | 0.5 µM | 0.5 µM | 0.5 µM | 0.5 µM | 83% | 1% | 5 µM | 5 µM | 5 µM | IC50 [4, 22]: 5 µM; Fibrin Selectivity [6]: 10; Fibrin Selectivity (LOG10) [6]: 0.98; IC50 (primary rat microglia [7]): > 20 µM
CCCC(=O)O[C@]1(C(=O)CO)CC[C@H]2[C@@H]3CCC4=CC(=O)CC[C@]4(C)[C@H]3[C@@H](O)C[C@@]21C [Hydrocortisone butyrate, reference compound] | > 20 µM | > 20 µM | Q2 | > 50% | > 50% | Q2 | Q2 | Q2 | > 20 µM | 78% | 2% | 0.02 µM | 0.02 µM | 0.02 µM | 0.02 µM | 108% | 2% | 2 µM | 2 µM | 2 µM | IC50 (in vitro [1]; cFib assay, Table 6): > 20 µM; Quadrant (FIG. 5b) ([2]; Table 2, screen at 10 μM): Q2; Activity ([2]; Table 7, fib = fibrin, LPS, tox = toxicity): fib/LPS; Quadrant (FIG. 5b) ([2]; microglia HTS, Table 6): Q2; IC50 [4, 22]: 2 µM; IC50 ([4]; Table 6, read-out: LPS IC50 (uM) (Suppl. Table 7)): 2 µM; IC50 ([4]; Table 7, read-out: LPS_IC50): 0.005 µM; Fibrin Selectivity [6]: 89; Fibrin Selectivity (LOG10) [6]: 1.95; IC50 ([6]; Table 6, read-out: Fibrin IC50 (uM) (Suppl. Table 7)): 0.02 µM; IC50 ([6]; Table 7, read-out: fib_IC50): 0.071 µM; IC50 (primary rat microglia [7]): > 20 µM; IC50 (primary rat microglia [7]; Table 6): > 20 µM
C[C@H](N)[C@H](O)c1ccc(O)c(O)c1 [Levonordefrin, reference compound] | > 20 µM | > 20 µM | Q3 | > 50% | > 50% | Q3 | Q3 | Q3 | > 20 µM | 36% | 1% | 0.9 µM | 0.9 µM | 0.9 µM | 0.9 µM | 70% | 0% | > 20 µM | > 20 µM | > 20 µM | IC50 [4, 22]: > 20 µM; Fibrin Selectivity [6]: 21; Fibrin Selectivity (LOG10) [6]: 1.33; IC50 (primary rat microglia [7]): > 20 µM
